In brackets after ≈: the same amount, converted by molar mass. Like-named read-outs stand apart in the source and are kept apart here.
Assays:
[1] = test system: M. kansasii CNCTC My 235/80 (ATCC 12478); assay: 96 well plate microdilution broth method with Alamar Blue; type: cell-based; conditions: Mycobacterium kansasii
[2] = test system: Mycobacterium aurum DSM 43999 (ATCC 23366); assay: Microdilution broth, modified Microplate Alamar Blue Assay, whole cell growth inhibition; type: cell-based; conditions: Mycolicibacterium aurum, read-out: MIC Mycobacterium aurum
[3] = test system: Mycobacterium tuberculosis H37Ra ITM-M006710 (ATCC 9431); assay: as above; type: cell-based; conditions: Mycobacterium tuberculosis, read-out: MIC Mtb H37Ra
[4] = test system: Mycobacterium smegmatis DSM 43465 (ATCC 607); assay: as above; type: cell-based; conditions: Mycolicibacterium smegmatis, read-out: MIC Mycobacterium smegmatis
[5] = test system: M. avium ssp. avium CNCTC My 80/72 (ATCC 15769); assay: 96 well plate microdilution broth method with Alamar Blue; type: cell-based; conditions: Mycobacterium avium
[6] = type: physicochemical
Procedure: As a complementary test, final compounds were tested for in vitro activity against selected fungal and bacterial pathogens of clinical importance. The microdilution broth method was performed according to The European Committee on Antimicrobial Susceptibility Testing (EUCAST) instructions with slight modifications. The minimum inhibitory concentration was expressed in µM. Not all compounds were evaluated due to the fact of a problem with solubility which occurred for 18 samples. […] See Supplementary Materials for the list of tested strains, methodology, and full results.

HepG2 cells = assay: HepG2 cytotoxicity, CellTiter 96 (MTS) assay; type: cell-based, human; conditions: for IC50: Homo sapiens, read-out: HepG2 IC50; for SI, selectivity index: IC50 (HepG2)/MIC against Mtb H37Ra (in µM)
[7] = test system: Escherichia coli ATCC 25922, CCM 3954; assay: Antibacterial microdilution broth method (EUCAST); type: cell-based; conditions: read-out: MIC EC
[8] = test system: Staphylococcus epidermidis ATCC 12228, CCM 4418; assay: Antibacterial microdilution broth method (EUCAST); type: cell-based; conditions: read-out: MIC SE
[9] = test system: Candida parapsilosis ATCC 22019, CCM 8260; assay: Antifungal microdilution broth method (EUCAST); type: cell-based; conditions: Lodderomyces parapsilosis, read-out: MIC CP
[10] = test system: Trichophyton interdigitale ATCC 9533, CCM 8377; assay: Antifungal microdilution broth method (EUCAST); type: cell-based; conditions: read-out: MIC TI
[11] = test system: Enterococcus faecalis ATCC 29212, CCM 4224; assay: Antibacterial microdilution broth method (EUCAST); type: cell-based; conditions: read-out: MIC EF
[12] = test system: Candida krusei ATCC 6258, CCM 8271; assay: Antifungal microdilution broth method (EUCAST); type: cell-based; conditions: Pichia kudriavzevii, read-out: MIC CK
[13] = test system: Absidia corymbifera CCM 8077 (Lichtheimia corymbifera); assay: Antifungal microdilution broth method (EUCAST); type: cell-based; conditions: read-out: MIC AC
[14] = test system: Staphylococcus aureus spp.aureus ATCC 29213, CCM 4223; assay: Antibacterial microdilution broth method (EUCAST); type: cell-based; conditions: read-out: MIC SA
[15] = test system: Candida albicans ATCC 24433, CCM 8320; assay: Antifungal microdilution broth method (EUCAST); type: cell-based; conditions: read-out: MIC CA
[16] = test system: Acinetobacter baumanii ATCC 19606, DSM 30007; assay: Antibacterial microdilution broth method (EUCAST); type: cell-based; conditions: Acinetobacter baumannii
[17] = test system: Candida tropicalis ATCC 750, CCM 8264; assay: Antifungal microdilution broth method (EUCAST); type: cell-based; conditions: read-out: MIC CT
[18] = test system: Pseudomonas aeruginosa ATCC 27853, CCM 3955; assay: Antibacterial microdilution broth method (EUCAST); type: cell-based; conditions: read-out: MIC PA
[19] = test system: Aspergillus flavus CCM 8363; assay: Antifungal microdilution broth method (EUCAST); type: cell-based; conditions: read-out: MIC AFla
[20] = test system: Staphylococcus aureus methicillin resistant ATCC 43300, CCM 4750; assay: microbe, parasite or virus in culture; type: cell-based; conditions: ATCC 43300 / CCM 4750 / MRSA, read-out: MIC MRSA
[21] = test system: Klebsiella pneumoniae ATCC 10031, CCM 4415; assay: Antibacterial microdilution broth method (EUCAST)
[22] = test system: Aspergillus fumigatus ATCC 204305; assay: Antifungal microdilution broth method (EUCAST); type: cell-based; conditions: read-out: MIC AF
[23] = in vitro, Middlebrook 7H9 broth, resazurin
[24] = HepG2, 24 h incubation, > means higher concentration not reproducible due to precipitation

SMILES: NNC(=O)c1ccncc1 [INH, isoniazid, reference compound]
- MIC ([1]; ATCC12478, Middlebrook 7H9 broth pH 6.6, read-out: MIC Mycobacterium kansasii): 25 µg/mL (≈ 182 µM)
- MIC [2, 23]: 3.91 to 7.81 µg/mL (≈ 28.5 to 56.9 µM)
- MIC [3, 23]: 0.125 to 0.25 µg/mL
- MIC [4, 23]: 7.81 to 15.6 µg/mL (≈ 56.9 to 114 µM)
- MIC ([5]; ATCC15769, Middlebrook 7H9 broth pH 6.6, read-out: MIC Mycobacterium avium): 25 µg/mL (≈ 182 µM)

SMILES: CCCCCNc1cnc(C(=O)Nc2cc(Cl)ccc2O)cn1 [Compound 7c, N-(5-chloro-2-hydroxyphenyl)-5-(pentylamino)pyrazine-2-carboxamide]
- Solubility problem in antibacterial/antifungal testing [6]: did not dissolve in DMSO
- MIC [2, 23]: ≥ 500 µg/mL
- MIC [3, 23]: ≥ 500 µg/mL
- MIC [4, 23]: ≥ 500 µg/mL
- IC50 (HepG2 cells; [24]): > 25 µM
- melting point: 250.3 to 255.1 °C

SMILES: CCCNc1cnc(C(=O)Nc2ccc(C)cc2)cn1 [Compound 4a, 5-(Propylamino)-N-(p-tolyl)pyrazine-2-carboxamide]
- Solubility problem in antibacterial/antifungal testing [6]: precipitated in both growth media
- MIC [2, 23]: ≥ 500 µg/mL
- MIC [3, 23]: 15.6 µg/mL
- MIC [4, 23]: 31.2 µg/mL (≈ 116 µM)
- IC50 (HepG2 cells; [24]): > 100 µM
- SI, selectivity index (HepG2 cells): >1.73
- melting point: 168 to 169 °C

SMILES: CCCCCCCNc1cnc(C(=O)Nc2cc(Cl)ccc2O)cn1 [Compound 7e, N-(5-chloro-2-hydroxyphenyl)-5-(heptylamino)pyrazine-2-carboxamide]
- Solubility problem in antibacterial/antifungal testing [6]: did not dissolve in DMSO
- MIC [2]: ≥ 500 µg/mL
- MIC [3]: ≥ 500 µg/mL
- MIC [4]: 31.2 µg/mL (≈ 86.1 µM)
- IC50 (HepG2 cells; [24]): > 10 µM
- melting point: 243.6 to 246 °C

SMILES: CCCCCCCCNc1cnc(C(=O)Nc2ccc(Cl)cc2O)cn1 [Compound 6f, N-(4-chloro-2-hydroxyphenyl)-5-(octylamino)pyrazine-2-carboxamide]
- Solubility problem in antibacterial/antifungal testing [6]: did not dissolve in DMSO
- MIC [2, 23]: ≥ 500 µg/mL
- MIC [3, 23]: ≥ 500 µg/mL
- MIC [4, 23]: 7.81 µg/mL (≈ 20.7 µM)
- IC50 (HepG2 cells; [24]): > 50 µM
- melting point: 196.9 to 197.9 °C

SMILES: CCCCCCNc1cnc(C(=O)Nc2cc(Cl)ccc2O)cn1 [Compound 7d, N-(5-chloro-2-hydroxyphenyl)-5-(hexylamino)pyrazine-2-carboxamide]
- Solubility problem in antibacterial/antifungal testing [6]: did not dissolve in DMSO
- MIC [2, 23]: ≥ 500 µg/mL
- MIC [3, 23]: ≥ 500 µg/mL
- MIC [4, 23]: ≥ 500 µg/mL
- IC50 (HepG2 cells; [24]): > 25 µM
- melting point: 249.3 to 251.9 °C

SMILES: CCCCCNc1cnc(C(=O)Nc2ccc(CC)cc2)cn1 [Compound 5c, N-(4-ethylphenyl)-5-(pentylamino)pyrazine-2-carboxamide]
- Solubility problem in antibacterial/antifungal testing [6]: precipitated in both growth media
- MIC [2, 23]: ≥ 500 µg/mL
- MIC [3, 23]: ≥ 500 µg/mL
- MIC [4, 23]: ≥ 500 µg/mL
- IC50 (HepG2 cells; [24]): > 25 µM
- melting point: 136.1 to 137.1 °C

SMILES: CCCCNc1cnc(C(=O)Nc2ccc(CC)cc2)cn1 [Compound 5b, 5-(Butylamino)pyrazine-N-(4-ethylphenyl)-2-carboxamide]
- Solubility problem in antibacterial/antifungal testing [6]: precipitated in both growth media
- MIC [2, 23]: ≥ 500 µg/mL
- MIC [3, 23]: ≥ 500 µg/mL
- MIC [4, 23]: ≥ 500 µg/mL
- IC50 (HepG2 cells; [24]): > 50 µM
- melting point: 133.8 to 134.8 °C

SMILES: CCCCCCCCNc1cnc(C(=O)Nc2ccc(CC)cc2)cn1 [Compound 5f, N-(4-ethylphenyl)-5-(octylamino)pyrazine-2-carboxamide]
- Solubility problem in antibacterial/antifungal testing [6]: precipitated in both growth media
- MIC [2, 23]: ≥ 250 µg/mL
- MIC [3, 23]: ≥ 250 µg/mL
- MIC [4, 23]: ≥ 250 µg/mL
- IC50 (HepG2 cells; [24]): > 10 µM
- melting point: 131 to 132 °C

SMILES: CCCCCCCNc1cnc(C(=O)Nc2ccc(C)cc2)cn1 [Compound 4e, 5-(Heptylamino)-N-(p-tolyl)pyrazine-2-carboxamide]
- MIC ([1]; ATCC12478, pH 6.6, read-out: MIC Mycobacterium kansasii): 12.5 µg/mL (≈ 38.3 µM)
- MIC ([7]; 24 h): > 500 µM
- MIC ([7]; 48 h): > 500 µM
- MIC ([8]; 24 h): > 500 µM
- MIC ([8]; 48 h): > 500 µM
- MIC ([9]; 24 h): > 125 µM
- MIC ([9]; 48 h): > 125 µM
- MIC ([10]; 72 h): > 125 µM
- MIC ([10]; 120 h): > 125 µM
- MIC ([11]; 24 h): > 500 µM
- MIC ([11]; 48 h): > 500 µM
- MIC [2]: ≥ 500 µg/mL
- MIC ([3]; MIC converted to µM): 2.39 µM
- MIC [3, 23]: 0.78 µg/mL
- MIC ([12]; 24 h): > 125 µM
- MIC ([12]; 48 h): > 125 µM
- MIC [4]: ≥ 500 µg/mL
- MIC ([13]; CCM8077, 24 h): > 125 µM
- MIC ([13]; CCM8077, 48 h): > 125 µM
- MIC ([14]; 24 h): > 500 µM
- MIC ([14]; 48 h): > 500 µM
- MIC ([15]; 24 h): > 125 µM
- MIC ([15]; 48 h): > 125 µM
- MIC ([16]; 24h): > 500 µM
- MIC ([16]; 48h): > 500 µM
- MIC ([17]; 24 h): > 125 µM
- MIC ([17]; 48 h): > 125 µM
- MIC ([18]; 72 h): > 500 µM
- MIC ([18]; 120 h): > 500 µM
- MIC ([19]; CCM8363, 24 h): > 125 µM
- MIC ([19]; CCM8363, 48 h): > 125 µM
- MIC ([20]; 24 h): > 500 µM
- MIC ([20]; 48 h): > 500 µM
- IC50 (HepG2 cells; HepG2, 24 h): > 50 µM
- SI, selectivity index (HepG2 cells): >20.91
- MIC ([5]; ATCC15769, pH 6.6, read-out: MIC Mycobacterium avium): > 100 µg/mL
- MIC KP ([21]; 24h): > 500 µM
- MIC KP ([21]; 48h): > 500 µM
- melting point: 157.8 to 158.9 °C
- MIC ([22]; ATCC204305, 24 h): > 125 µM
- MIC ([22]; ATCC204305, 48 h): > 125 µM

SMILES: CCCCCNc1cnc(C(=O)Nc2cccc(O)c2)cn1 [Compound 2c, N-(3-hydroxyphenyl)-5-(pentylamino)pyrazine-2-carboxamide]
- Solubility problem in antibacterial/antifungal testing [6]: precipitated in both growth media
- MIC [2, 23]: ≥ 500 µg/mL
- MIC [3, 23]: ≥ 500 µg/mL
- MIC [4, 23]: ≥ 500 µg/mL
- IC50 (HepG2 cells; [24]): > 10 µM
- melting point: 224.8 to 226.1 °C

SMILES: CCCCCCCNc1cnc(C(=O)Nc2cccc(O)c2)cn1 [Compound 2e, 5-(Heptylamino)pyrazine-N-(3-hydroxyphenyl)-2-carboxamide]
- Solubility problem in antibacterial/antifungal testing [6]: precipitated in both growth media
- MIC [2, 23]: ≥ 500 µg/mL
- MIC [3, 23]: ≥ 500 µg/mL
- MIC [4, 23]: 250 µg/mL (≈ 761 µM)
- IC50 (HepG2 cells; [24]): > 10 µM
- melting point: 222 to 223 °C

SMILES: CCCCCCNc1cnc(C(=O)Nc2cccc(O)c2)cn1 [Compound 2d, 5-(Hexylamino)pyrazine-N-(3-hydroxyphenyl)-2-carboxamide]
- Solubility problem in antibacterial/antifungal testing [6]: precipitated in both growth media
- MIC [2, 23]: ≥ 500 µg/mL
- MIC [3, 23]: ≥ 500 µg/mL
- MIC [4, 23]: ≥ 500 µg/mL
- IC50 (HepG2 cells; [24]): > 10 µM
- melting point: 225 to 226 °C

SMILES: CCCCCCCCNc1cnc(C(=O)Nc2cc(Cl)ccc2O)cn1 [Compound 7f, N-(5-chloro-2-hydroxyphenyl)-5-(octylamino)pyrazine-2-carboxamide]
- Solubility problem in antibacterial/antifungal testing [6]: did not dissolve in DMSO
- MIC [2, 23]: ≥ 500 µg/mL
- MIC [3, 23]: ≥ 500 µg/mL
- MIC [4, 23]: 250 µg/mL (≈ 663 µM)
- IC50 (HepG2 cells; [24]): > 50 µM
- melting point: 239.7 to 242.4 °C

Source: publication PMC7180572, “5-Alkylamino-N-phenylpyrazine-2-carboxamides: Design, Preparation, and Antimycobacterial Evaluation” (Molecules, 2020)
